Reference: patent US7718693B2, “Receptor antagonists and their methods of use” (Glaxo Group Limited, priority 2006, dated 2010)

Key:
Format in all cases: in vivo
[1] = test system: Random Hooded rats; assay: Rat Model of Neuropathic Pain (sciatic nerve ligatures, Von Frey mechanical allodynia); settings: oral, twice daily for 8 days, 26-33 days post surgery
Excerpt: Rat Model of Neuropathic Pain
By placing loosely constrictive ligatures around the common sciatic nerve, a peripheral mononeuropathy can be produced, which thereby provides a rat model of neuropathic pain, Bennet et al., Pain, Vol. 33, pp 87-107 (1988). Adult male Random Hooded rats (180-200 g) from Charles River, UK were anaesthetised with isoflurane (3%). The sciatic nerve in the left leg was exposed at mid thigh level and 4 loose ligatures of Chromic 4.0 gut tied around the nerve as described by Bennet et al., Pain, Vol. 33, pp 87-107 (1988). The wound was closed and secured with staples. Sham rats underwent the same procedure but loose ligatures were not applied. The presence of mechanical (tactile) allodynia was assessed using manual application of Von Frey hair monofilaments. Monofilaments were applied in ascending order to the plantar region of the hind paw (range: 1.4 g-26 g). Each hair was applied for approx. 3-5 seconds until a paw withdrawal response was observed. After confirmation with reapplication of lower and/or higher hairs, the lowest hair to give a paw withdrawal was recorded as the threshold response (g). When stable allodynia was established rats were dosed orally 26-33 days post surgery with compound twice daily for 8 days with allodynia measurements recorded at least three times during the dosing period.

[2] = test system: Random Hooded rats; assay: Rat Model of Joint Pain (intra-articular FCA, weight bearing); settings: oral; for ED50: FCA (i.art) weight bearing, read-out: ED50 obtained from Area Under the Curve (AUC) calculations; for reversal of FCA (i.art)-induced difference in weight bearing compared to vehicle response: twice daily for 5 days, normally 13-17 days post surgery
Procedure: By measuring hypersensitivity post intra-articular injection of FCA into the knee, the effectiveness of a potential analgesic in reversing FCA-induced hypersensitivity can be assessed in a joint pain model of chronic inflammatory pain. Adult male Random Hooded rats (150-180 g) from Charles River, UK were briefly anaesthetised with isoflurane (3%). Rats were then injected with 150 μl of Freund's complete adjuvant (FCA) into the left knee joint (intra-articularly, i.art). The ability to bear weight on each hindlimb (weight bearing, g) was measured prior to and following surgery using a Dual Channel Weight Averager (Linton Instruments). When a stable difference in weight bearing was established between the injected and contralateral paws, rats were typically dosed orally (normally 13-17 days post surgery) with compound twice daily for 5 days with weight bearing measurements recorded daily.

[3] = test system: Random Hooded rats; assay: Rat Model of Acute Inflammatory Pain (intraplantar FCA, weight bearing); settings: oral; for reversal of FCA (i.pl)-induced difference in weight bearing compared to vehicle response: 24 hours after FCA injection; for ED50: FCA (i.pl) weight bearing, read-out: ED50 obtained from dose response curves
Procedure: Rat Model of Acute Inflammatory Pain
A useful animal model for acute inflammatory pain is the Freund's Complete Adjuvant (FCA)-induced inflammation model. A similar model using carrageenan rather than FCA is described by Clayton et al. in Br. J. Pharmacol. 1997; 120, 219P. Adult male Random Hooded rats (180-220 g) from Charles River, UK received an intraplantar (i.pl) injection of 100 μl of FCA into the plantar surface of the left hind paw. The ability to bear weight on each hindlimb (weight bearing g) was measured prior to and 24 hours after the FCA injection using a Dual Channel Weight Averager (Linton Instruments). After the post-FCA reading, rats were typically dosed orally with compound after which weight bearing measurements were recorded.

## CN1C(=O)CC[C@H]1C(=O)NCc1cccc(C(F)(F)F)c1Cl [Example E51, N-{[2-chloro-3-(trifluoromethyl)phenyl]methyl}-1-methyl-5-oxoprolinamide]
[1]
  reversal of CCl-induced mechanical allodynia compared to vehicle response: significantly reversed
[2]
  ED50: < 20 mg/kg
  reversal of FCA (i.art)-induced difference in weight bearing compared to vehicle response: significantly reversed
[3]
  reversal of FCA (i.pl)-induced difference in weight bearing compared to vehicle response: significantly reversed
  ED50: < 20 mg/kg

## CN1C(=O)CC[C@H]1C(=O)NCc1ccc(Cl)cc1Cl [Example E10, N-[(2,4-dichlorophenyl)methyl]-1-methyl-5-oxo-prolinamide]
[1]
  reversal of CCl-induced mechanical allodynia compared to vehicle response: significantly reversed
[2]
  ED50: < 20 mg/kg
  reversal of FCA (i.art)-induced difference in weight bearing compared to vehicle response: significantly reversed
[3]
  reversal of FCA (i.pl)-induced difference in weight bearing compared to vehicle response: significantly reversed
  ED50: < 20 mg/kg
